The source of these data is patent US8268999B2, “Tri-cyclic pyrazolopyridine kinase inhibitors” (Vertex Pharmaceuticals Incorporated, priority 2009, dated 2012).

Test [1] has as its target PI3Kα (Homo sapiens, UniProt P42336). Kind of test: PI3K Inhibition Assay (33P-ATP, PI(4,5)P2 substrate), PI3Kα. In kind it is biochemical. The settings on record: 2 nM final enzyme, 3 μM ATP, 30 μM PI(4,5)P2, 30 min at 25° C.; competitive tight binding Ki fit. The method, then:
(§1) Using a Biomek FX from Beckman Coulter, 1.5 μL of each of ten 2.5-fold serial dilutions of a compound of the invention in 100% DMSO was added to an individual well (hereafter, “test well”) in a 96 well polystyrene plate [Corning, Costar Item No. 3697]. One test well also contained 1.5 μL of DMSO with no compound. […] Using a Titertek Multidrop, 50 μL of Reaction Mix [100 mM HEPES pH 7.5, 50 mM NaCl, 10 mM DTT, 0.2 mg/mL BSA, 60 μM phosphatidylinositol(4,5)-bisphosphate diC16 (PI(4,5)P2; Avanti Polar Lipids, Cat. No. 840046P) and PI3K isoform of interest (see Table 3 for isoform concentrations)] was added to each well. To initiate the reaction, 50 μL of ATP Mix [20 mM MgCl2, 6 μM ATP (100 μCi/μmole ^33P-ATP)] was added each well, followed by incubating the wells for 30 min. at 25° C. Final concentrations in each well were 50 mM HEPES 7.5, 10 mM MgCl2, 25 mM NaCl, 5 mM DTT, 0.1 mg/mL BSA, 30 μM PI(4,5)P2, 3 μM ATP, and the PI3K isoform of interest (see Table 3). Final compound concentrations in each well ranged from 10 μM to 1 nM.
(§2) After incubation, the reactions in each well were quenched by addition of 50 μL of stop solution [30% TCA/Water, 10 mM ATP]. […] 50 μL of scintillation fluid was added to each well and the plate read on a Perkin-Elmer TopCount™ NXT liquid scintillation counter to obtain ^33P-counts representing inhibition values. […]

Test [2] addresses PI3Kγ (Homo sapiens, UniProt P48736). Kind of test: PI3K Inhibition Assay (33P-ATP, PI(4,5)P2 substrate), PI3Kγ. In kind it is biochemical. The settings on record: 2 nM final enzyme, 3 μM ATP, 30 μM PI(4,5)P2, 30 min at 25° C.; competitive tight binding Ki fit. As for the experimental part: as §1, §2

Several values for one entry are separate records, joined by “and”; a condition that tells them apart may be missing. Equal entries are not always repeated.

Sequence of PI3Kα (P42336 whole entry, species assumed, canonical isoform): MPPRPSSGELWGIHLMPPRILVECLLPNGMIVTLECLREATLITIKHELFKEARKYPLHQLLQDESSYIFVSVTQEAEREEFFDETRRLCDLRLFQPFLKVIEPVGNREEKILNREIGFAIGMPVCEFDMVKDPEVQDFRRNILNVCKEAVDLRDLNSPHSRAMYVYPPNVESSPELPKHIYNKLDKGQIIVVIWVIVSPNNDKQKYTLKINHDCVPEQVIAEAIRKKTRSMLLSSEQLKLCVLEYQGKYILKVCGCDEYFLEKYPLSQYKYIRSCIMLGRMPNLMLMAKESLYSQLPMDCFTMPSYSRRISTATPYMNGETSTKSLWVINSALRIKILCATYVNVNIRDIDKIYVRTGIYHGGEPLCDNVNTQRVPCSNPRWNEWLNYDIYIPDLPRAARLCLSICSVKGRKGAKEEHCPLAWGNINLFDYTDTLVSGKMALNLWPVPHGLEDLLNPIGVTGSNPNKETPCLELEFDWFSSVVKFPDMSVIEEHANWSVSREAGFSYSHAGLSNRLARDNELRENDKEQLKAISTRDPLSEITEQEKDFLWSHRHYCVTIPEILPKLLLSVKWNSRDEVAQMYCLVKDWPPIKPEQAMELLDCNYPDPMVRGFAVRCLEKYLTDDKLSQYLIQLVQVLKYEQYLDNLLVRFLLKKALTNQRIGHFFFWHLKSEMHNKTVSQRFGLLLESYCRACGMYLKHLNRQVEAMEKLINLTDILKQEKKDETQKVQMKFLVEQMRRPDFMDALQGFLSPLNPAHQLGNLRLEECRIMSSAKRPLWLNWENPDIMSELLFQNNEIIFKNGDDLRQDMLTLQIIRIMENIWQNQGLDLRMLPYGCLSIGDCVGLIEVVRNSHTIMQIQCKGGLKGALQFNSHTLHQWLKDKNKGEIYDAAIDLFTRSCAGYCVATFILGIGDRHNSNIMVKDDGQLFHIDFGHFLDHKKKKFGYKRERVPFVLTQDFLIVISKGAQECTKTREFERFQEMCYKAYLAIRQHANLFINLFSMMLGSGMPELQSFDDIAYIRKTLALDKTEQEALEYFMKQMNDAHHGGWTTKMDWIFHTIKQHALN
Sequence of PI3Kα (P27986 whole entry partner, species assumed, canonical isoform): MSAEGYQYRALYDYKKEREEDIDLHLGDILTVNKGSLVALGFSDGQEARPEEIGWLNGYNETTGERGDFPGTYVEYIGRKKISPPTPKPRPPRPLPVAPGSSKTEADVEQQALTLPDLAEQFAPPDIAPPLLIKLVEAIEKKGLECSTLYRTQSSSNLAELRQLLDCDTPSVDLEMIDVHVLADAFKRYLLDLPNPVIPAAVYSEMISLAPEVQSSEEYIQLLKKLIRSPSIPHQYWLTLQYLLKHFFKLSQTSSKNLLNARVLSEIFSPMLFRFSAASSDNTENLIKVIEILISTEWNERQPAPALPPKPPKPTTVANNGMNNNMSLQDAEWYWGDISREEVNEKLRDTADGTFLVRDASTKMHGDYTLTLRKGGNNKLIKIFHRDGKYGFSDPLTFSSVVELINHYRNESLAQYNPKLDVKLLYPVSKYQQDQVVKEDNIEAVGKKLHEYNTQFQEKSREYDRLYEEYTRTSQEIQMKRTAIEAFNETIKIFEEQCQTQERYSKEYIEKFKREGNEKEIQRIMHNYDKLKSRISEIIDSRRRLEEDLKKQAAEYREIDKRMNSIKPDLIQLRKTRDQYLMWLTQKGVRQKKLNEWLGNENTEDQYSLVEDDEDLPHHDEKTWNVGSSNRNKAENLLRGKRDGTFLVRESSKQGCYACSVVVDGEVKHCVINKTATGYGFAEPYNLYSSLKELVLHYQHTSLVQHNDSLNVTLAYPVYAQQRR
Sequence of PI3Kγ (P48736 whole entry, species assumed): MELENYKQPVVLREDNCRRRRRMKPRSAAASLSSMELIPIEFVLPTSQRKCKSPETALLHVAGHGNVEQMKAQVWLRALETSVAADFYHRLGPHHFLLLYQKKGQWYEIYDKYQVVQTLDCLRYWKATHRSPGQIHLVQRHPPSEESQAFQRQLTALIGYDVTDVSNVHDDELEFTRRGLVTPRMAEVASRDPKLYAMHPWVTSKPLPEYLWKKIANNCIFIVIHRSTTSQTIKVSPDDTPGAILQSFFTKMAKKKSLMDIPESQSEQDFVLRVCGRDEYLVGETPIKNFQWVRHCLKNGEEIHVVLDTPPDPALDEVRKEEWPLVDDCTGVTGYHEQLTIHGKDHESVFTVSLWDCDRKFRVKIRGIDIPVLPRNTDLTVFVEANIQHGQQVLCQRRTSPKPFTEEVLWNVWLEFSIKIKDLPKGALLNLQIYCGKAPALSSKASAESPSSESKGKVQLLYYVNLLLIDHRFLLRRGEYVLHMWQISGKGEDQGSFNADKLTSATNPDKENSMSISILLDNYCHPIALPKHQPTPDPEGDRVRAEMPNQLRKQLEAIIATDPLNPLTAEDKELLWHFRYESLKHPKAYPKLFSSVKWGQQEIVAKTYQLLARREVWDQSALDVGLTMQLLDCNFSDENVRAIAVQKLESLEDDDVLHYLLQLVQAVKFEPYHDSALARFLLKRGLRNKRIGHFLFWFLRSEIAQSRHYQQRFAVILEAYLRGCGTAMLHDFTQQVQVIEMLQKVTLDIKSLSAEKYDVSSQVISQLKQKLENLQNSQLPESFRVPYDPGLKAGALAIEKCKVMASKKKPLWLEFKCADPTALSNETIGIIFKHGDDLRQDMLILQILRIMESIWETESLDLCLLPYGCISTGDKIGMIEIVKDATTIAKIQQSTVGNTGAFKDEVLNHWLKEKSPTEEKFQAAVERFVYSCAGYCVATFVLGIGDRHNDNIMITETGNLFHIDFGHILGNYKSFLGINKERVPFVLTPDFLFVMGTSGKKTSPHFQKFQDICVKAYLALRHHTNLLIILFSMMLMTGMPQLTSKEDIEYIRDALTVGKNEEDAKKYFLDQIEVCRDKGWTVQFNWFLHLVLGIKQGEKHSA

A word on the Ki: it is a dissociation constant, usually derived from enzyme kinetics or from competition with a known ligand. A higher Ki goes with lower affinity. Take `COc1cc(-c2ccc3nc(Nc4cnccn4)sc3n2)cnc1OC` [Compound 37]: in test [1], the Ki was 2 nM and < 100 nM. Regarding `CCN(CC)C(=O)c1cccc(Nc2nc3ccc(-c4cncc(OC)c4)cc3s2)n1` [Compound 110], in test [2], the inhibition constant Ki was 3 nM and < 100 nM.
